Measurements from patent US20020091131A1, “Epoxysuccinamide derivatives” (priority 1997, published 2002).

Tests used:
[1] = test system: rats grown with low calcium feed (bone resorption); assay: Bone resorption inhibitory activity by decrease of plasma calcium concentration in rats grown with low calcium feed; assay type: in vivo, rat; details: Wistar rats on low calcium feed, 6 hours after administration, vs non-administration group
Experimental: (1) If rats are grown with low calcium feed, its bone weight decreases. This is because calcium is left from bone by dissolution in blood (i.e., bone resorption) so as to maintain the calcium concentration in blood at a normal level. Therefore, compounds inhibiting bone resorption in the model adopted in this experiment inhibit dissolution of calcium in blood from bone to reduce the plasma calcium concentration. Thus, compounds of the invention were evaluated in their bone resorption inhibitory activity by measuring decrease of plasma calcium concentration in the following experiment (according to J. M. Delaisse et al., Biochem. Biophys. Res. Commun., 125, 441 (1984)
Rats of Wistar strain (age: 5 to 6 weeks) were grown with a low calcium content feed (Ca: 0.02S, available from Oriental Yeast Industries, Co., Ltd.) for one week to give bone resorption-enhanced condition A test compound was dissolved in aqueous 1 nethylcellulose solution (when the test compound was-hydrophobic, Tween 20, nonionic-surfactant, was added), and administered orally to the rat in a dosage of 0.2 mL/100 g (weight of rat) At 6 hours after the administration, blood was taken from tail vein of the rat Then, the plasma calcium concentration was measured by OCPC method,
The plasma calcium concentration decreasing activity (Ca decrease rate) of the test compound was calculated by the following equation:
Ca decrease rate (%)=100×(plasma calcium concentration at 6 hours after administration of test compound)−(plasma calcium concentration at the same time in non-administration group)/(plasma calcium concentration at the same time in non-administration group)

Cathepsin B = biological target: T1, Cathepsin B (Rattus norvegicus, UniProt P00787); assay: Cathepsin B inhibitory action (lysosome fraction, Z-Arg-Arg-MCA); assay type: biochemical; details: pH 6.0, 30° C., read-out: Cathepsin Inhibition (IC50) Cathepsin B
T1 construct: from tissue; host or cells: liver of male Wistar rat, crude lysosome fraction
T1 sequence (P00787 80-333): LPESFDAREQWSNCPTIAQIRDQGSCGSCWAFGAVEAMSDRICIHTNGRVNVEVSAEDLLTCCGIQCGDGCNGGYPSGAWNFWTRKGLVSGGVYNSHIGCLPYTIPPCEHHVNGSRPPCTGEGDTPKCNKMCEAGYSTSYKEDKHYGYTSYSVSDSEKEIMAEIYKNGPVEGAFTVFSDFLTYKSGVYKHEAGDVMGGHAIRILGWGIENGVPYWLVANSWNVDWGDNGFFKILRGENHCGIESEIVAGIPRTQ
Experimental: (§1) Male rat of Wistar strain was killed by exsanguination and a ice-chilled physiological saline was introduced into portal vein for circulation Then, its liver was taken out. Thereafter, the following procedures were performed at 4°C.
(§2) The liver was minced by scissors. Five grams of minced liver were homogenized in a Potter type Teflon Homogenizer after addition of 9 volumes of 0.25 M sucrose. The homogenate was centrifuged at 800 G for 10 minutes. The resulting supernatant was further centrifuged at 12,000 G for 20 minutes. The precipitate was homogenized in 25 mL of 0.25 M sucrose, and then centrifuged at 12,000 G for 20 minutes. The resulting precipitate was further homogenized in 10 mL of 0.25 M sucrose. Thus, a lysosome fraction was obtained,
(§3) The lysosome fraction was diluted with 0.25M sucrose containing 0.336 of Triton X-100 for the use in the measurement of cathepsin L activity.
To 0.25 mL of a solution (pH: 6.0) containing 352 mM KH2PO4, 48 mM Na2HPO4, 5.32 mM EDTA·2Na and 10 mM L-cysteine were added 0.1 mL of the lysosome fraction, 5 μL of the test compound solution, and 0.545 mL of distilled water. The mixture was pre-incubated at 30° C. for 15 minutes. Thereafter, the reaction was started by the addition of 0.1 mL of a solution of 50 μM carbobenzoxy-L-arginine-L-arginine-4-methylcoumaryl-7-amide (Z-Arg-Arg-MCA, substrate). The reaction was performed at 30° C. for 20 minutes, and then terminated by addition of 1 mL of an aqueous solution (pH: 4.3) containing 100 mM sodium mono-chloroacetate, 30 mM sodium acetate and 70 mM acetic acid. The finally obtained solution was subjected to measurement of fluorescence strength (excitation wavelength: 380 nm, emission wavelength: 460 nm).

Cathepsin L = biological target: T2, Cathepsin L (Rattus norvegicus, UniProt P07154); assay: Cathepsin L inhibitory action (rat liver lysosome fraction, Z-Phe-Arg-MCA, in presence of CA-074); assay type: biochemical; details: pH 5.5, 30° C., with 10^-7 M CA-074, read-out: Cathepsin Inhibition (IC50) Cathepsin L
T2 construct: Thus, a lysosome fraction was obtained; from tissue; host or cells: liver of male Wistar rat, crude lysosome fraction
T2 sequence (P07154 114-334): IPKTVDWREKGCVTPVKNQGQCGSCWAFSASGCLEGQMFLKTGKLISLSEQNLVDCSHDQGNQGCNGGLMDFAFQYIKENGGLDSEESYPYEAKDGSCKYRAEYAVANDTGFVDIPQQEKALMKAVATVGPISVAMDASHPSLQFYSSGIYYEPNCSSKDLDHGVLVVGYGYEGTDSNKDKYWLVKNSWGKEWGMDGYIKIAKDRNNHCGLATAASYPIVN
Experimental: as §1, §2, §3
To 0.25 mL of a solution (pH: 5.5) containing 340 mM sodium acetate, 60 mM acetic acid, 4 mM EDTA and 8 mM dithiothreitol were added 0.1mL of the lysosome fraction, 5 μL of the test compound solution, and 0.545 mL of distilled water. The mixture was pre-incubated at 30° C. for 15 minutes. Thereafter, 0.1 mL of 50 μM by carbobenzoxy-L-phenylalanyl-L-arginine-4-methylcoumaryl-7-amide (Z-Phe-Arg-MCA) solution was added, and the reaction was started. The reaction was performed at 30° C. for 20 minutes, and then terminated by addition of 1mL of an aqueous solution (pH. 4.3) containing 100 mM sodium mono-chloroacetate, […] and 70 mM acetic acid The finally obtained solution was subjected to measurement of fluorescence strength (excitation wave-length: 380 nm, emission wavelength: 460 nm.
The Z-Phe-Arg-MCA is also decomposed by cathepsin B which is contained in the lysosome fraction.

ovariectomized rats = assay: Action on ovariectomized rats (postmenopausal osteoporosis model), bone density by p-QCT; assay type: in vivo, rat; details: ovariectomized SD female rats, 300 mg/kg once a day for 4 weeks; average ± SD; control 543.7 ± 31.4, false operation 658.8 ± 46.3; P < 0.01 vs control
Experimental: The ovariectomized rats were employed as models of postmenopausal osteoporosis, for evaluating the compound of the invention. (2) Experimental Procedures
The ovaries on both sides were removed surgically in SD female rats (age; 13 weeks). From the next day, a test compound (compound of Example 5) was administered at 300 mg/kg to the rats once a day for 4 weeks (administration group: 8 rats). After the last administration was complete, the fourth vertebrae lumbale was taken out, and the total bone density was measured by means of p-QCT (Peripheral Bone Density-Measuring Apparatus) and compared with the bone density of the control group (7 rats). In addition, rats treated by false-operation were also subjected to the same measurement, […]

Rat adjuvant arthritis = assay: Action on rat adjuvant arthritis (hind paw volume); assay type: in vivo; details: Wistar rats, 300 mg/kg orally once a day for 21 days, untreated hind paw, significant vs control, risk <1%
Experimental: Rat adjuvant arthritis which is considered as a model of rheumatoid arthritis of human being was employed for evaluation of the compound of the invention.
Male rats of Wistar strain (age: 5 weeks) were sensitized by subcutaneous injection of Mycobacterium Butyricum which was suspended in liquid paraffin into the right hind paw. From the next day, a test compound (the compound of the aforementioned Example 5) was orally administered at a dosage of 300 mg/kg once a day for 21 days (administration group: 8 rats). After the last administration was complete, a volume of the untreated hind paw was measured by means of Volume Differential Meter and compared with that of Control group (8 rats, non-administration group) In addition, a non-adjuvant treatment group (normal group: 8 rats) was subjected to the same measurement. Inhibition of expansion of the hind paw by the test compound (Inhibition rate) was calculated by the following equation:
Inhibition rate (%)=100×(administration group−control group)/(normal group−control group)

[2] = Rattus norvegicus, po, 15 mg/kg p.o., read-out: Measured Plasma Ca Concentration (Ca decrease rate)

IC50 (Cathepsin B) [µM] | IC50 (Cathepsin L) [µM] | SMILES | change in vivo at 15 mg/kg [1, 2] [%] | further results
– | – | CCOC(=O)[C@H]1O[C@@H]1C(=O)N[C@@H](CC(C)C)C(=O)c1ccccc1 [Example 7, Ethyl (2S,3S)-3-[[1-(S)-benzoyl-3-methylbutyl]carbamoyl]-oxirane-2-carboxylate] | -13.6 | –
– | – | CCOC(=O)[C@H]1O[C@@H]1C(=O)N[C@@H](CC(C)C)[C@H](OC(C)=O)c1ccccc1 [Example 13, Ethyl (2S,3S)-3-[[1(S)-[α-(R)-acetoxybenzyl]-3-methyl-butyl]carbamoyl]oxirane-2-carboxylate] | -14.7 | –
0.1 | 0.094 | CC(C)C[C@@H](CO)NC(=O)[C@H]1O[C@@H]1C(=O)O [Example 12, (2S,3S)-3-[[1-(S)-hydroxymethyl-3-methylbutyl]carbamoyl]-oxirane-2-carboxylic Acid] | – | –
– | – | CO[C@H](c1ccccc1)[C@H](CC(C)C)NC(=O)[C@H]1O[C@@H]1C(=O)OC(C)C [Example 14, Isopropyl (2S,3S)-3-[[1-(S)-[α-(R)-methoxybenzyl]-3-methylbutyl]carbamoyl]oxirane-2-carboxylate] | – | change in vivo at 5 mg/kg ([1]; Rattus norvegicus, po, 5 mg/kg p.o., read-out: Measured Plasma Ca Concentration (Ca decrease rate)): -9.9%
– | 0.011 | O=C(O)[C@H]1O[C@@H]1C(=O)N[C@H](COCc1ccccc1)Cc1ccccc1 [Example 23] | – | –
– | – | CCOC(=O)[C@H]1O[C@@H]1C(=O)N[C@H](COCc1ccccc1)CC(C)C [Example 17, Ethyl (2S,3S)-3-[[1-(S)-benzyloxymethyl-3-methylbutyl]-carbamoyl]oxirane-2-carboxylate] | -15.4 | –
– | – | CCOC(=O)[C@H]1O[C@@H]1C(=O)N[C@@H](CC(C)C)[C@H](OC)c1ccccc1 [Example 5, Ethyl (2S,3S)-3-[[1-(S)-[α-(R)-methoxybenzyl]-3-methyl-butyl]carbamoyl]oxirane-2-carboxylate] | -20.4 | melting point: 108 to 109 °C; Total bone density of the fourth vertebrae lumbale (ovariectomized rats): 617.8 ± 37.9 mg/mL; Inhibition of expansion of the hind paw (Inhibition rate) (Rat adjuvant arthritis): 42%
– | – | CCOC(=O)[C@H]1O[C@@H]1C(=O)N[C@@H](CC(C)C)[C@H](O)c1ccccc1 [Example 1a, Ethyl (2S,3S)-3-[[1-(S)-[α-(R)-hydroxybenzyl]-3-methyl-butyl]carbamoyl]oxirane-2-carboxylate] | -12.5 | –
0.21 | 0.057 | CCC(C)[C@H](NC(=O)[C@H]1O[C@@H]1C(=O)O)[C@H](O)c1ccccc1 (stereo partly drawn) [Example 9, (2S,3S)-3-[[1-(S)-[α-(R)-hydroxybenzyl]-2-methylbutyl]carbamoyl]oxirane-2-carboxylic acid] | – | –
– | – | CCOC(=O)[C@H]1O[C@@H]1C(=O)N[C@H](COCC(C)C)CC(C)C [Example 18a, Ethyl (2S,3S)-3-[[1-(S)-isobutoxyrethyl-3-methylbutyl]-carbamoyl]oxirane-2-carboxylate] | – | Measured Plasma Ca Concentration (Ca decrease rate) ([1]; 15 mg/kg p.o.): −24.5%
0.028 | 0.0069 | CC(C)C[C@@H](COCc1ccccc1)NC(=O)[C@H]1O[C@@H]1C(=O)O [Example 24, Sodium (2S,3S)-3-[[1-(S)-benzyloxymethyl-3-methylbutyl]-carbamoyl]oxirane-2-carboxylate] | – | –
0.12 | 0.011 | CC(C)C[C@H](NC(=O)[C@H]1O[C@@H]1C(=O)O)[C@H](O)c1ccccc1 [Example 2, (2S,3S)-3-[[1-(S)-[α-(R)-hydroxybenzyl]-3-methylbutyl]-carbamoyl]oxirane-2-carboxylic acid] | – | –
0.085 | 0.018 | CO[C@H](c1ccccc1)[C@H](CC(C)C)NC(=O)[C@H]1O[C@@H]1C(=O)O [Example 11, (2S,3S)-3-[[1-(S)-[α-(R)-methoxybenzyl]-3-methylbutyl]-carbamoyl]oxirane-2-carboxylic Acid] | -17.3 | –
– | – | CCOC(=O)[C@H]1O[C@@H]1C(=O)N[C@H](C(=O)c1ccccc1)C(C)C [Example 8, Ethyl (2S,3S)-3-[[1-(S)-benzoyl-2-methylpropyl]-carbamoyl]oxirane-2-carboxylate] | -15.8 | –
0.041 | 0.0033 | CC(C)C[C@H](NC(=O)[C@H]1O[C@@H]1C(=O)O)[C@H](OCc1ccccc1)c1ccccc1 [Example 22, (2S,3S)-3-[[1-(S)-[α-(R)-(benzyloxy)benzyl]-3-methyl-butyl]carbamoyl]oxirane-2-carboxylic Acid] | – | –
